Results from patent US20260262643A1, “HERBICIDAL BENZOXAZINES” (FMC CORPORATION, priority 2022, published 2026).

Assays:
[1] = tested on: corn; assay: Test C preemergence; type: in vivo, Zea mays
Outline: (§1)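 Test material, in non-phytotoxic solvent with surfactant, was sprayed on the soil directly after seeding (preemergence) or on young plants of 2–10 cm with one to two leaves (postemergence). Greenhouse, 10 days; 0–100 visual control scale.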

[2] = tested on: corn; assay: Test C postemergence; type: in vivo, Zea mays; conditions: 10 days, 0 to 100 scale (0 no effect, 100 complete control)
Outline: as §1

[3] = tested on: ryegrass, Italian; assay: Test C postemergence; type: in vivo, Lolium multiflorum; conditions: 10 days, 0 to 100 scale (0 no effect, 100 complete control)
Outline: as §1

[4] = tested on: kochia; assay: Test C postemergence; type: in vivo, Bassia scoparia; conditions: 10 days, 0 to 100 scale (0 no effect, 100 complete control)
Outline: as §1

[5] = tested on: horseweed; assay: Test C postemergence; type: in vivo, Erigeron canadensis; conditions: 500 g ai/ha, postemergence, 10 days, 0 to 100 scale (0 no effect, 100 complete control)
Outline: as §1

[6] = tested on: ducksalad; assay: Test D flooded paddy test; type: in vivo, Heteranthera limosa; conditions: 250 g ai/ha, applied to paddy water, visual rating after 13 to 14 days, scale 0 to 100 (0 no effect, 100 complete control)
Outline: (§2)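 At the 2-leaf stage, floodwater 3 cm deep received the test compound; that depth persisted throughout. Plants scored visually 13 to 14 days on, 0 (no effect) to 100 (complete control), dash indicating no result.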

[7] = tested on: ryegrass, Italian; assay: Test C preemergence; type: in vivo, Lolium multiflorum
Outline: as §1

[8] = tested on: sedge, umbrella; assay: Test D flooded paddy test; type: in vivo, Cyperus difformis; conditions: 250 g ai/ha, applied to paddy water, visual rating after 13 to 14 days, scale 0 to 100 (0 no effect, 100 complete control)
Outline: as §2

[9] = tested on: ragweed; assay: Test C preemergence; type: in vivo, Ambrosia artemisiifolia
Outline: as §1

[10] = tested on: pigweed, palmer; assay: Test C preemergence; type: in vivo, Amaranthus palmeri
Outline: as §1

[11] = tested on: soybean; assay: Test C postemergence; type: in vivo, Glycine max; conditions: 10 days, 0 to 100 scale (0 no effect, 100 complete control)
Outline: as §1

[12] = tested on: green foxtail; assay: Test C preemergence; type: in vivo, Setaria viridis
Outline: as §1

[13] = tested on: barnyardgrass; assay: Test C postemergence; type: in vivo, Echinochloa crusgalli; conditions: 10 days, 0 to 100 scale (0 no effect, 100 complete control)
Outline: as §1

[14] = tested on: green foxtail; assay: Test C postemergence; type: in vivo, Setaria viridis; conditions: 10 days, 0 to 100 scale (0 no effect, 100 complete control)
Outline: as §1

[15] = tested on: wheat; assay: Test C preemergence; type: in vivo, Triticum aestivum
Outline: as §1

[16] = tested on: soybean; assay: Test C preemergence; type: in vivo, Glycine max
Outline: as §1

[17] = tested on: galium; assay: Test C postemergence; type: in vivo, Galium aparine; conditions: 10 days, 0 to 100 scale (0 no effect, 100 complete control)
Outline: as §1

[18] = tested on: blackgrass; assay: Test C postemergence; type: in vivo, Alopecurus myosuroides; conditions: 10 days, 0 to 100 scale (0 no effect, 100 complete control)
Outline: as §1

[19] = tested on: kochia; assay: Test C preemergence; type: in vivo, Bassia scoparia
Outline: as §1

[20] = tested on: barnyardgrass; assay: Test D flooded paddy test; type: in vivo, Echinochloa crus-galli; conditions: 250 g ai/ha, applied to paddy water, visual rating after 13 to 14 days, scale 0 to 100 (0 no effect, 100 complete control)
Outline: as §2

[21] = tested on: oat, wild; assay: Test C postemergence; type: in vivo, Avena fatua; conditions: 10 days, 0 to 100 scale (0 no effect, 100 complete control)
Outline: as §1

[22] = tested on: barnyardgrass; assay: Test C preemergence; type: in vivo, Echinochloa crusgalli
Outline: as §1

[23] = tested on: blackgrass; assay: Test C preemergence; type: in vivo, Alopecurus myosuroides
Outline: as §1

[24] = tested on: wheat; assay: Test C postemergence; type: in vivo, Triticum aestivum; conditions: 10 days, 0 to 100 scale (0 no effect, 100 complete control)
Outline: as §1

[25] = tested on: ragweed; assay: Test C postemergence; type: in vivo, Ambrosia artemisiifolia; conditions: 10 days, 0 to 100 scale (0 no effect, 100 complete control)
Outline: as §1

[26] = tested on: rice; assay: Test D flooded paddy test; type: in vivo, Oryza sativa; conditions: 250 g ai/ha, applied to paddy water, visual rating after 13 to 14 days, scale 0 to 100 (0 no effect, 100 complete control)
Outline: as §2

[27] = tested on: pigweed, palmer; assay: Test C postemergence; type: in vivo, Amaranthus palmeri; conditions: 10 days, 0 to 100 scale (0 no effect, 100 complete control)
Outline: as §1

[28] = 500 g ai/ha, preemergence, 0 to 100 scale (0 no effect, 100 complete control)
[29] = Preemergence, 125 g ai/ha, 0 to 100 scale, 0 no effect, 100 complete control

`CC(=O)c1ncn(-c2ccc(C)c(C(=O)N3C[C@H](C)Oc4c(Cl)cccc43)c2)n1` [Compound 360] was tested, and the “Corn plant response rating” value [1, 28] was 70, the “Plant response rating, Corn” value [1, 29] was 60 and the “Plant response rating, Corn” value ([2]; 500 g ai/ha, postemergence) was 90. For the same molecule, the “Plant response rating, Corn” value ([2]; Postemergence, 125 g ai/ha) was 90, the “Plant response rating, Ryegrass, Italian” value ([3]; 500 g ai/ha, postemergence) was 100 and the “Plant response rating, Ryegrass, Italian” value ([3]; Postemergence, 125 g ai/ha) was 70. The “Plant response rating, Kochia” value ([4]; 500 g ai/ha, postemergence) was 70, the “Plant response rating, Kochia” value ([4]; Postemergence, 125 g ai/ha) was 20 and the “Plant response rating, Horseweed” value [5] was 30. For the same molecule, the “Plant response rating, Ducksalad (Flood)” value [6] was 100, the “Ryegrass, Italian plant response rating” value [7, 28] was 90 and the “Plant response rating, Ryegrass, Italian” value [7, 29] was 80. The “Plant response rating, Sedge, Umbrella (Flood)” value [8] was 90, the “Ragweed plant response rating” value [9, 28] was 100 and the “Plant response rating, Ragweed” value [9, 29] was 80. For the same molecule, the “Pigweed, Palmer plant response rating” value [10, 28] was 90, the “Plant response rating, Pigweed, Palmer” value [10, 29] was 30 and the “Plant response rating, Soybean” value ([11]; 500 g ai/ha, postemergence) was 100. For the same molecule, the “Plant response rating, Soybean” value ([11]; Postemergence, 125 g ai/ha) was 100, the “Foxtail, Green plant response rating” value [12, 28] was 100 and the “Plant response rating, Foxtail, Green” value [12, 29] was 100. For the same molecule, the “Plant response rating, Barnyardgrass” value ([13]; 500 g ai/ha, postemergence) was 100, the “Plant response rating, Barnyardgrass” value ([13]; Postemergence, 125 g ai/ha) was 90 and the “Plant response rating, Foxtail, Green” value ([14]; 500 g ai/ha, postemergence) was 90. The “Plant response rating, Foxtail, Green” value ([14]; Postemergence, 125 g ai/ha) was 90, the “Wheat plant response rating” value [15, 28] was 80 and the “Plant response rating, Wheat” value [15, 29] was 40. For the same molecule, the “Soybean plant response rating” value [16, 28] was 100, the “Plant response rating, Soybean” value [16, 29] was 80 and the “Plant response rating, Galium” value ([17]; 500 g ai/ha, postemergence) was 100. The “Plant response rating, Galium” value ([17]; Postemergence, 125 g ai/ha) was 100, the “Plant response rating, Blackgrass” value ([18]; 500 g ai/ha, postemergence) was 90 and the “Plant response rating, Blackgrass” value ([18]; Postemergence, 125 g ai/ha) was 80. For the same molecule, the “Kochia plant response rating” value [19, 28] was 80, the “Plant response rating, Kochia” value [19, 29] was 20 and the “Plant response rating, Barnyardgrass (Flood)” value [20] was 45. For the same molecule, the “Plant response rating, Oat, Wild” value ([21]; 500 g ai/ha, postemergence) was 90, the “Plant response rating, Oat, Wild” value ([21]; Postemergence, 125 g ai/ha) was 30 and the “Barnyardgrass plant response rating” value [22, 28] was 100. The “Plant response rating, Barnyardgrass” value [22, 29] was 100, the “Blackgrass plant response rating” value [23, 28] was 100 and the “Plant response rating, Blackgrass” value [23, 29] was 80. The “Plant response rating, Wheat” value ([24]; 500 g ai/ha, postemergence) was 50, the “Plant response rating, Wheat” value ([24]; Postemergence, 125 g ai/ha) was 30 and the “Plant response rating, Ragweed” value ([25]; 500 g ai/ha, postemergence) was 80. The “Plant response rating, Ragweed” value ([25]; Postemergence, 125 g ai/ha) was 50, the “Plant response rating, Rice (Flood)” value [26] was 15 and the “Plant response rating, Pigweed, Palmer” value ([27]; 500 g ai/ha, postemergence) was 90. The “Plant response rating, Pigweed, Palmer” value ([27]; Postemergence, 125 g ai/ha) was 60.
